Reference: ChEMBL document CHEMBL1147043, “Comparative metabolism of radiolabeled muraglitazar in animals and humans by quantitative and qualitative metabolite profiling” (Drug Metab Dispos, 2007)

Tests used:
Plasma [1] = assay: Biodistribution in orally dosed cynomolgus monkey plasma assessed as […] muraglitazar level after 12 hrs by LC/MS analysis; assay type: ADME, organism-based, Macaca fascicularis; conditions: in vivo, po
[2] = Metabolic stability in CD1 mouse hepatocytes assessed as hydroxyl-O-demethyl muraglitazar glucuronide level by LC/MS analysis relative to control; assay type: ADME, cell-based, Hepatocyte
Hepatocyte [3] = assay: Metabolic stability in Sprague-Dawley rat hepatocytes assessed as 9-hydroxy-O-demethyl muraglitazar level by LC/MS analysis relative to control; assay type: ADME, cell-based
[4] = Metabolic stability in cynomolgus monkey hepatocytes assessed as muraglitazar 12-carboxylic acid level by LC/MS analysis relative to control; assay type: ADME, cell-based, Macaca fascicularis, Hepatocyte
Plasma [5] = assay: Biodistribution in orally dosed human plasma assessed as muraglitazar glucuronide level after 12 hrs by LC/MS analysis; assay type: ADME, organism-based; conditions: in vivo, po
[6] = Metabolic stability in CD1 mouse hepatocytes assessed as 12-hydroxy muraglitazar level by LC/MS analysis relative to control; assay type: ADME, cell-based, Hepatocyte
[7] = Biodistribution in orally dosed human urine assessed as O-dealkyl-O-demethyl muraglitazar level by LC/MS analysis; assay type: ADME, organism-based; conditions: in vivo, po
[8] = Drug concentration in bile duct-cannulated CD1 mouse feces assessed as recovery of radioactive dose at 40 mg/kg, po after 24 hrs; assay type: ADME, organism-based; design: dose 40 mg/kg, route oral; conditions: in vivo
[9] = Biodistribution in orally dosed Beagle dog urine assessed as O-dealkyl muraglitazar level by LC/MS analysis; assay type: ADME, organism-based, Canis lupus familiaris; conditions: in vivo, po
Plasma [10] = assay: Biodistribution in orally dosed Sprague-Dawley rat plasma assessed as O-demethyl muraglitazar level after 1 hr by LC/MS analysis; assay type: ADME, organism-based; conditions: in vivo, po
Plasma [11] = assay: Biodistribution in orally dosed cynomolgus monkey plasma assessed as 17-dihydroxy muraglitazar level after 12 hrs by LC/MS analysis; assay type: ADME, organism-based, Macaca fascicularis; conditions: in vivo, po
[12] = Metabolic stability in CD1 mouse hepatocytes assessed as 12-hydroxy-O-demethyl muraglitazar level by LC/MS analysis relative to control; assay type: ADME, cell-based, Hepatocyte
Canis familiaris = assay: Cmax in Beagle dog at 2 mg/kg, po after 4 hrs; assay type: ADME, organism-based, Canis lupus familiaris; design: dose 2 mg/kg, route oral; conditions: in vivo
[13] = Biodistribution in orally dosed human feces assessed as muraglitazar glucuronide level by LC/MS analysis; assay type: ADME, organism-based; conditions: in vivo, po
[14] = Metabolic stability in cynomolgus monkey hepatocytes assessed as radioactivity recovaries at 25.6 ug/mL after 4 hrs; assay type: ADME, cell-based, Macaca fascicularis, Hepatocyte
Hepatocyte [15] = assay: Metabolic stability in Sprague-Dawley rat hepatocytes assessed as radioactivity recovaries at 25.6 ug/mL after 4 hrs; assay type: ADME, cell-based
Rattus norvegicus [16] = assay: Biodistribution in orally dosed Sprague-Dawley rat urine assessed as 17-hydroxy muraglitazar level by LC/MS analysis; assay type: ADME, organism-based; conditions: in vivo, po
[17] = Biodistribution in orally dosed cynomolgus monkey urine assessed as muraglitazar glucuronide level by LC/MS analysis; assay type: ADME, organism-based, Macaca fascicularis; conditions: in vivo, po
Plasma [18] = assay: Biodistribution in orally dosed cynomolgus monkey plasma assessed as 12,17-dihydroxy muraglitazar level after 12 hrs by LC/MS analysis; assay type: ADME, organism-based, Macaca fascicularis; conditions: in vivo, po
Rattus norvegicus [19] = assay: Biodistribution in orally dosed Sprague-Dawley rat feces assessed as O-dealkyl muraglitazar level by LC/MS analysis; assay type: ADME, organism-based; conditions: in vivo, po
Plasma [20] = assay: Biodistribution in orally dosed human plasma assessed as 12,17-dihydroxy muraglitazar level after 4 hrs by LC/MS analysis; assay type: ADME, organism-based; conditions: in vivo, po
Rattus norvegicus [21] = assay: Biodistribution in orally dosed Sprague-Dawley rat feces assessed as O-demethyl muraglitazar level by LC/MS analysis; assay type: ADME, organism-based; conditions: in vivo, po
Hepatocyte [22] = assay: Metabolic stability in human hepatocytes assessed as muraglitazar glucuronide level by LC/MS analysis relative to control; assay type: ADME, cell-based
[23] = Metabolic stability in CD1 mouse hepatocytes assessed as 8-hydroxy muraglitazar level by LC/MS analysis relative to control; assay type: ADME, cell-based, Hepatocyte
[24] = Biodistribution in orally dosed human feces assessed as muraglitazar 12-carboxylic acid level by LC/MS analysis; assay type: ADME, organism-based; conditions: in vivo, po
Rattus norvegicus [25] = assay: Biodistribution in orally dosed Sprague-Dawley rat feces assessed as 12-hydroxy-O-demethyl muraglitazar level by LC/MS analysis; assay type: ADME, organism-based; conditions: in vivo, po
Hepatocyte [26] = assay: Metabolic stability in Sprague-Dawley rat hepatocytes assessed as muraglitazar 12-carboxylic acid level by LC/MS analysis relative to control; assay type: ADME, cell-based
[27] = Biodistribution in orally dosed human feces assessed as 9-hydroxy muraglitazar level by LC/MS analysis; assay type: ADME, organism-based; conditions: in vivo, po
Plasma [28] = assay: Biodistribution in orally dosed human plasma assessed as 12-dihydroxy muraglitazar level after 4 hrs by LC/MS analysis; assay type: ADME, organism-based; conditions: in vivo, po
Hepatocyte [29] = assay: Metabolic stability in human hepatocytes assessed as 17-hydroxy muraglitazar level by LC/MS analysis relative to control; assay type: ADME, cell-based
[30] = Biodistribution in orally dosed cynomolgus monkey feces assessed as O-demethyl muraglitazar level by LC/MS analysis; assay type: ADME, organism-based, Macaca fascicularis; conditions: in vivo, po
[31] = Metabolic stability in cynomolgus monkey hepatocytes assessed as 12-hydroxy-O-demethyl muraglitazar level by LC/MS analysis relative to control; assay type: ADME, cell-based, Macaca fascicularis, Hepatocyte
Plasma [32] = assay: Biodistribution in orally dosed Sprague-Dawley rat plasma assessed as O-demethyl muraglitazar level after 4 hrs by LC/MS analysis; assay type: ADME, organism-based; conditions: in vivo, po
[33] = Biodistribution in orally dosed human urine assessed as O-dealkyl muraglitazar level by LC/MS analysis; assay type: ADME, organism-based; conditions: in vivo, po
[34] = Drug concentration in bile duct-cannulated cynomolgus monkey feces assessed as recovery of radioactive dose at 5 mg/kg, po after 48 hrs; assay type: ADME, organism-based, Macaca fascicularis; design: dose 5 mg/kg, route oral; conditions: in vivo
Plasma [35] = assay: Biodistribution in orally dosed cynomolgus monkey plasma assessed as 12,17-dihydroxy muraglitazar level after 1 hr by LC/MS analysis; assay type: ADME, organism-based, Macaca fascicularis; conditions: in vivo, po
[36] = Metabolic stability in cynomolgus monkey hepatocytes assessed as 17-hydroxy-O-demethyl muraglitazar level by LC/MS analysis relative to control; assay type: ADME, cell-based, Macaca fascicularis, Hepatocyte
Plasma [37] = assay: Biodistribution in orally dosed Beagle dog plasma assessed as O-demethyl muraglitazar level after 1 hr by LC/MS analysis; assay type: ADME, organism-based, Canis lupus familiaris; conditions: in vivo, po
Rattus norvegicus [38] = assay: Biodistribution in orally dosed Sprague-Dawley rat urine assessed as muraglitazar 12-carboxylic acid level by LC/MS analysis; assay type: ADME, organism-based; conditions: in vivo, po
Hepatocyte [39] = assay: Metabolic stability in Sprague-Dawley rat hepatocytes assessed as 8-hydroxy-O-demethyl muraglitazar level by LC/MS analysis relative to control; assay type: ADME, cell-based
[40] = Biodistribution in orally dosed cynomolgus monkey feces assessed as 12-hydroxy muraglitazar level by LC/MS analysis; assay type: ADME, organism-based, Macaca fascicularis; conditions: in vivo, po
[41] = Half life in cynomolgus monkey at 1.9 mg/kg, po after 24 hrs; assay type: ADME, organism-based, Macaca fascicularis; design: dose 1.9 mg/kg, route oral; conditions: in vivo
[42] = Fecal excretion rate in orally dosed Beagle dog within 48 hrs; assay type: ADME, organism-based, Canis lupus familiaris; conditions: faeces, po, read-out: Activity
[43] = Biodistribution in orally dosed human feces assessed as 8,12-dihydroxy muraglitazar level by LC/MS analysis; assay type: ADME, organism-based; conditions: in vivo, po
[44] = Biodistribution in orally dosed cynomolgus monkey urine assessed as 8-hydroxy muraglitazar level by LC/MS analysis; assay type: ADME, organism-based, Macaca fascicularis; conditions: in vivo, po
Plasma [45] = assay: Biodistribution in orally dosed Sprague-Dawley rat plasma assessed as O-Dealkyl muraglitazar level after 12 hrs by LC/MS analysis; assay type: ADME, organism-based; conditions: in vivo, po
Hepatocyte [46] = assay: Metabolic stability in human hepatocytes assessed as 8-hydroxy-O-demethyl muraglitazar level by LC/MS analysis relative to control; assay type: ADME, cell-based
[47] = Drug concentration in bile duct-cannulated CD1 mouse bile assessed as recovery of radioactive dose at 40 mg/kg, po after 24 hrs; assay type: ADME, organism-based; design: dose 40 mg/kg, route oral; conditions: in vivo
[48] = Metabolic stability in cynomolgus monkey hepatocytes assessed as 8-hydroxy-O-demethyl muraglitazar level by LC/MS analysis relative to control; assay type: ADME, cell-based, Macaca fascicularis, Hepatocyte
[49] = Metabolic stability in CD1 mouse hepatocytes assessed as hydroxyl muraglitazar glucuronide level by LC/MS analysis relative to control; assay type: ADME, cell-based, Hepatocyte
Plasma [50] = assay: Biodistribution in orally dosed cynomolgus monkey plasma assessed as 12-dihydroxy muraglitazar level after 1 hr by LC/MS analysis; assay type: ADME, organism-based, Macaca fascicularis; conditions: in vivo, po

COc1ccc(OC(=O)N(CC(=O)O)Cc2ccc(OCCc3nc(-c4ccccc4)oc3C)cc2)cc1 [MURAGLITAZAR]
Drug uptake (Plasma [1]): 1%
Drug uptake [2]: < 0.2%
Drug uptake (Hepatocyte [3]): < 0.2%
Drug uptake [4]: 13%
Drug uptake (Plasma [5]): 2.5%
Drug uptake [6]: 11%
Drug uptake [7]: 0.04%
Drug uptake [8]: 12%
Drug uptake [9]: 0.44%
Drug uptake (Plasma [10]): 2.3%
Drug uptake (Plasma [11]): 21.4%
Drug uptake [12]: 3%
Cmax (Canis familiaris): 1 ugequiv/ml
Drug uptake [13]: 0.06%
Stability [14]: 99.2%
Stability (Hepatocyte [15]): 96.5%
Drug uptake (Rattus norvegicus [16]): < 0.01%
Drug uptake [17]: 0.02%
Drug uptake (Plasma [18]): 1%
Drug uptake (Rattus norvegicus [19]): 1.75%
Drug uptake (Plasma [20]): < 0.05%
Drug uptake (Rattus norvegicus [21]): 34.2%
Drug uptake (Hepatocyte [22]): 1.1%
Drug uptake [23]: 0.3%
Drug uptake [24]: 0.13%
Drug uptake (Rattus norvegicus [25]): 2.63%
Drug uptake (Hepatocyte [26]): < 0.2%
Drug uptake [27]: 1.6%
Drug uptake (Plasma [28]): 1%
Drug uptake (Hepatocyte [29]): 4.4%
Drug uptake [30]: 7.24%
Drug uptake [31]: < 0.2%
Drug uptake (Plasma [32]): 2.1%
Drug uptake [33]: 0.06%
Drug uptake [34]: 15%
Drug uptake (Plasma [35]): 1%
Drug uptake [36]: 11%
Drug uptake (Plasma [37]): 1%
Drug uptake (Rattus norvegicus [38]): < 0.01%
Drug uptake (Hepatocyte [39]): < 0.2%
Drug uptake [40]: 7.24%
half-life [41]: 1410 min
dose excreted at 48 h [42]: 95%
Drug uptake [43]: 1.36%
Drug uptake [44]: 0.12%
Drug uptake (Plasma [45]): 0.05%
Drug uptake (Hepatocyte [46]): < 0.2%
Drug uptake [47]: 66%
Drug uptake [48]: < 0.2%
Drug uptake [49]: 2.7%
Drug uptake (Plasma [50]): 0.9%
